The values that follow come from article PMC2669294, “The Spliceosomal Phosphopeptide P140 Controls the Lupus Disease by Interacting with the HSC70 Protein and via a Mechanism Mediated by γδ T Cells” (PLoS ONE, 2009).

Non-standard residues stand in square brackets, D forms with d. Residues, ends and D or L forms follow the SMILES beside them. No end group written: not given here. pS = N[C@@H](COP(=O)(O)O)C(=O)O

For orientation: kon means a measure of how fast the partners come together. For orientation: koff means a measure of how fast the partners let go of each other. In general, Kd refers to the equilibrium constant for the complex coming apart.

Data set [1] has as its system SLE patients. As to conditions: human, in vivo; cited from earlier work.
Data set [2] deals with MRL/lpr mice. Also on record: method as in PMID 2397613. As to conditions: cited from earlier work.
Data set [3] can be described thus: Solubility limit by dynamic light scattering. In kind it is physicochemical. On the procedure: The solubility of P140 and 131–151 peptides was determined at 20 and 37°C using dynamic light scattering measurements. […] The integrity of P140, as measured in saline and PBS by high-performance liquid chromatography from the area of the peak corresponding to the intact peptide, remained intact during at least 60 days at 37°C (Figure 2D).
The synthesis and purification of P140 peptide (RIHMVYSKRpSGKPRGYAFIEY; produced under Good Manufacturing Practice conditions), and of peptides 131–151 ([…]) and ScP140 (YVSRYFGpSAIRHEPKMKIYRG) were described previously, [3], [7]. For the biotin-labeled peptides, the biotin moiety was introduced at the end of peptide assembly as a Fmoc-Lys(biotin)-OH derivative. Homogeneity of peptides was checked by analytical high-performance liquid chromatography, and their identity was assessed by matrix-assisted laser desorption and ionization time-of-flight (TOF) mass spectrometry using a Protein TOF apparatus (Bruker Spectrospin). The solubility limits of both peptides in the cell culture medium RPMI 1640, PBS and distilled water were determined at 20 and 37°C using dynamic light scattering measurements.

Data set [4] has as its target T1, Recombinant bovine HSC70 (Bos taurus, UniProt P19120).
T1 construct: purchased Stressgen
Kind of data set: Surface plasmon resonance, direct binding of peptides to immobilized HSC70. As to conditions: SPR BIAcore 3000, HSC70 immobilized via thiol groups on CM5, HBS-EP pH 7.4, 25°C, peptide 1.56 to 12.5 µM, 1:1 Langmuir model; for kon: read-out: association rate constant (kon); for koff: read-out: dissociation rate constant (koff). On the procedure:
To assess P140 binding to HSC70, we investigated the binding parameters and kinetics by surface plasmon resonance. HSC70 was immobilized onto the sensor chip via one of its four thiol groups, and different concentrations of P140 and 131–151 peptides were injected in the flux followed by a dissociation phase (see the overlay surface plasmon resonance plots of the raw data in Figure 1B). […] Similar data were obtained when biotinylated P140 was on the chip and HSC70 in solution. Thus, in this in vitro system, both peptides bind with medium affinity (µM range) to HSC70. […] Of significant importance, no binding was observed between P140 and Hsp70.
BIAcore 3000 system (Biacore AB) was used to evaluate the binding of P140 peptide to HSC70 protein. Sensor chip CM5, surfactant P20, amine coupling kit containing N-hydroxysuccinimide (NHS) and N-ethyl-N′-dimethylaminopropyl carbodiimide (EDC), 2-(2-pyridinyldithio)ethaneamine (PDEA) and ethanolamine were from Biacore AB. Biosensor assays were performed with HBS-EP buffer as running buffer (10 mM HEPES, 150 mM NaCl, 3 mM EDTA, 0.005% surfactant P20, pH 7.4). The different compounds were diluted in the running buffer. The sensor chip surface was regenerated after each experiment by injecting 10 µL of 10 mM HCl. Recombinant bovine HSC70 (Stressgen) was immobilized on flow cells of a CM5 sensor chip through its thiol groups using 35 µL PDEA in 50 mM borate buffer, pH 8.3 on the NHS/EDC-activated matrix. Then, 35 µL of HSC70 (100 µg/mL in formate buffer, pH 4.3) were injected until a response of 13,000 response units (RU) corresponding to 13 ng/mm^2 of HSC70 was immobilized. Twenty µL of a 50 mM cysteine/1 M NaCl solution was used to saturate unoccupied sites on the chip. The direct binding measurement of P140 peptides to HSC70 was carried out at 25°C with a constant flow rate of 20 µL/min. P140 peptide and analogues were injected in the flux at different concentrations for 3 min, followed by a dissociation phase of 3 min. The kinetic parameters were calculated using the BIAeval 3.1 software on a personal computer. Analysis was performed using the simple 1∶1 Langmuir binding model. The specific binding profiles were obtained after subtracting the response signal from the control empty channel and from blank-buffer injection. The fitting to each model was judged by the χ square value and randomness of residue distribution compared to the theoretical model.
Background: SPR reads the build-up and loss of mass on a sensor chip optically.

Data set [5] has as its target HSC70 (heat-shock cognate 71-kDa protein) (UniProt P63017). Description: biotin-peptide on cells, lysis, avidin-agarose pull-down. As to conditions: reference: non-phosphorylated biotin-peptide 131-151; sites S140.
For data set [6], the target named is T2, recombinant bovine HSC70 (bovine, UniProt P19120 1-650).
T2 construct: heat-shock cognate HSC70 protein, bovine, recombinant (Stressgen); Immobilised through one of its four thiol groups in the SPR experiment; no tag is named; also called recombinant HSC70 protein; source: bought: Stressgen (recombinant)
Kind of data set: SPR; BIAcore 3000; recombinant bovine HSC70 immobilised on CM5 chip through its thiol groups (13,000 RU); peptides injected (1.56 to 12.5 µM) 3 min, dissociation 3 min; 25°C, 20 µL/min; HBS-EP pH 7.4; 1:1 Langmuir model. As to conditions: both partners purified.

T1 sequence (P19120 whole entry): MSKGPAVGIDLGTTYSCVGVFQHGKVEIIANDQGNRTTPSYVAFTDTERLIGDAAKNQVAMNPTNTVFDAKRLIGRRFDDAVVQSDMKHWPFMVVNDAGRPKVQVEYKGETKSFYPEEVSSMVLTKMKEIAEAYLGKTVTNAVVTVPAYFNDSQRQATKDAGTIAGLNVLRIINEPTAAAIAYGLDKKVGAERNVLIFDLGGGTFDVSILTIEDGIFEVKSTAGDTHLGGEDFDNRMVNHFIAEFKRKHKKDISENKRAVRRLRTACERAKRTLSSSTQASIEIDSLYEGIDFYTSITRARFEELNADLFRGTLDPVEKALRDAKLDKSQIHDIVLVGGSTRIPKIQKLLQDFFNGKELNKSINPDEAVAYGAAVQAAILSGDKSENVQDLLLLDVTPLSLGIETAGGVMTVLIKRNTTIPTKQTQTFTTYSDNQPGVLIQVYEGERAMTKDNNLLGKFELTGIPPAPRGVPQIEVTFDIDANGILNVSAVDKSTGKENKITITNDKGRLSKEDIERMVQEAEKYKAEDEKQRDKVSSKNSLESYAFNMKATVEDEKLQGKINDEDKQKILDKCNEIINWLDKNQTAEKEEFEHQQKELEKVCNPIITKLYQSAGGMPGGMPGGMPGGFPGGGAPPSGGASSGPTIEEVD
T2 sequence (P19120 whole entry): as above

For the molecule `N=C(N)NCCCCCCC(=O)NC(O)C(=O)NCCCCNCCCN` (centres unmarked) [15-deoxyspergualin], the “treated patients with non-severe infectious episodes” value in data set [1] was “two of three”. Further, the “progression of polyclonal B cell activation and lupus nephropathy” value in data set [2] is reported as “suppressed the progression”.
As for RIHMVYSKRSGKPRGYAFIEY [131–151], the solubility entry in data set [3] (200 µM-solution in water, PBS and culture medium (RPMI 1640), 20 and 37°C) is “highly soluble”. Besides, in data set [4], the kon turned out to be 606 M⁻¹ s⁻¹ and the koff turned out to be 0.00407 s⁻¹.
As to “U1-70K small nuclear ribonucleoparticle protein 131-151 (from UniProt Q62376) biotin-P140 (pS140)”, the “binding against the reference” value in data set [5] was “same”.
On to `CC[C@H](C)[C@H](NC(=O)[C@H](Cc1ccccc1)NC(=O)[C@H](C)NC(=O)[C@H](Cc1ccc(O)cc1)NC(=O)CNC(=O)[C@H](CCCNC(=N)N)NC(=O)[C@@H]1CCCN1C(=O)[C@H](CCCCN)NC(=O)CNC(=O)[C@H](COP(=O)(O)O)NC(=O)[C@H](CCCNC(=N)N)NC(=O)[C@H](CCCCN)NC(=O)[C@H](CO)NC(=O)[C@H](Cc1ccc(O)cc1)NC(=O)[C@@H](NC(=O)[C@H](CCSC)NC(=O)[C@H](Cc1c[nH]cn1)NC(=O)[C@@H](NC(=O)[C@@H](N)CCCNC(=N)N)[C@@H](C)CC)C(C)C)C(=O)N[C@@H](CCC(=O)O)C(=O)N[C@@H](Cc1ccc(O)cc1)C(=O)O` [P140] (HELM PEPTIDE1{R.I.H.M.V.Y.S.K.R.[O=C([C@H](COP(=O)(O)O)N[*:1])[*:2]].G.K.P.R.G.Y.A.F.I.E.Y}$$$$V2.0), for which, in data set [3] (in water), the solubility result was “highly soluble”. In addition, in data set [4], the kon was determined as 530 M⁻¹ s⁻¹ and the koff is 0.00388 s⁻¹.

B1: P140 peptide (U1-70K snRNP protein residues 131-151, phosphorylated on Ser140) (peptide)
peptide: RIHMVYSKR[pS]GKPRGYAFIEY
notes: pS is the phosphoserine; also called phosphopeptide P140; source: synthetic peptide
Consider B1, for which, in data set [6], the Kd stood at 7.32 µM.

B2: non-phosphorylated peptide 131-151 of the U1-70K snRNP protein (peptide)
peptide: RIHMVYSKRSGKPRGYAFIEY
notes: also called non-phosphorylated analogue; source: synthetic peptide
Turning to B2, in data set [6], the equilibrium dissociation constant (Kd) is 6.72 µM.
